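Protocol summary: plate cells (96-well), add compound at 5 concentrations, incubate 48 h, interpolate endpoints linearly. At the GI50, growth is halved.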 Active and inactive are the calls of the source. Cut-off read from the data, not from the text of the source: active = GI50 up to about 1.1 µM and inactive = higher.
How the values were obtained:
Test in all cases: NCI-60 cell line screen, 48 h
UACC-62 = tested on: UACC-62
SNB-75 = tested on: SNB-75
SNB-19 = tested on: SNB-19
U-251 = tested on: U-251
KM12 = tested on: KM12
SK-MEL-5 = tested on: SK-MEL-5
786-0 = tested on: 786-0
TK-10 = tested on: TK-10
EKVX = tested on: EKVX
IGROV-1 = tested on: IGROV-1
NCI-H522 = tested on: NCI-H522
SW-620 = tested on: SW-620
OVCAR-5 = tested on: OVCAR-5
M14 = tested on: M14
OVCAR-3 = tested on: OVCAR-3
HCC 2998 = tested on: HCC 2998
UACC-257 = tested on: UACC-257
RXF 393 = tested on: RXF 393

| SMILES | GI50 (UACC-62) | GI50 (SNB-75) | GI50 (SNB-19) | GI50 (U-251) | GI50 (KM12) | GI50 (SK-MEL-5) | GI50 (786-0) | GI50 (TK-10) | GI50 (EKVX) | GI50 (IGROV-1) | GI50 (NCI-H522) | GI50 (SW-620) | GI50 (OVCAR-5) | GI50 (M14) | GI50 (OVCAR-3) | GI50 (HCC 2998) | GI50 (UACC-257) | GI50 (RXF 393) |
| --- | --- | --- | --- | --- | --- | --- | --- | --- | --- | --- | --- | --- | --- | --- | --- | --- | --- | --- |
| Cc1nc(N)nc(N)c1CCCc1ccccc1 | 5.55 µM (inactive) | 38.3 µM (inactive) | 11.2 µM (inactive) | 5.36 µM (inactive) | 28.6 µM (inactive) | 4.94 µM (inactive) | 3.66 µM (inactive) | > 100 µM (inactive) | 15.2 µM (inactive) | 6.11 µM (inactive) | 7.18 µM (inactive) | 4.57 µM (inactive) | 15.9 µM (inactive) | 4.78 µM (inactive) | 18.6 µM (inactive) | 12.5 µM (inactive) | 12.7 µM (inactive) |  |
| Cc1ccc(NC(=O)CCC(=O)C(C#N)c2ccccc2)cc1C (stereo not given) | > 100 µM (inactive) |  | > 100 µM (inactive) | > 100 µM (inactive) | > 100 µM (inactive) | > 100 µM (inactive) | > 100 µM (inactive) | > 100 µM (inactive) | > 100 µM (inactive) | > 100 µM (inactive) | > 100 µM (inactive) | > 100 µM (inactive) | > 100 µM (inactive) | > 100 µM (inactive) | > 100 µM (inactive) | > 100 µM (inactive) | > 100 µM (inactive) |  |
| Sc1nnc(COc2ccc(Cl)cc2Cl)[nH]1 | > 100 µM (inactive) | > 100 µM (inactive) | > 100 µM (inactive) | > 100 µM (inactive) |  | > 100 µM (inactive) | > 100 µM (inactive) | > 100 µM (inactive) | > 100 µM (inactive) | > 100 µM (inactive) |  | > 100 µM (inactive) | > 100 µM (inactive) | > 100 µM (inactive) | > 100 µM (inactive) | > 100 µM (inactive) | > 100 µM (inactive) | > 100 µM (inactive) |
| Cc1cc2c(cc1C)[n+]([O-])c(C(=O)/C=C/c1ccccc1Cl)c(C)[n+]2[O-] | 18.3 µM (inactive) | 19.2 µM (inactive) | 43.2 µM (inactive) | 28.2 µM (inactive) | 31.8 µM (inactive) | 24.4 µM (inactive) | 16 µM (inactive) | 25.4 µM (inactive) | 49.2 µM (inactive) | 20.1 µM (inactive) | 12.7 µM (inactive) | 35.1 µM (inactive) | 34.4 µM (inactive) | 24.1 µM (inactive) | 28.7 µM (inactive) | 17.1 µM (inactive) | 23 µM (inactive) |  |
| Nc1c(Cl)ncnc1NCCCNc1ncnc(Cl)c1N | > 100 µM (inactive) |  | > 100 µM (inactive) | > 100 µM (inactive) | > 100 µM (inactive) | > 100 µM (inactive) | > 100 µM (inactive) | > 100 µM (inactive) | > 100 µM (inactive) | > 100 µM (inactive) | 69.3 µM (inactive) | > 100 µM (inactive) | > 100 µM (inactive) | > 100 µM (inactive) | > 100 µM (inactive) | > 100 µM (inactive) | 67 µM (inactive) | > 100 µM (inactive) |
| O=C(N/C(=C\c1ccc([N+](=O)[O-])cc1)c1nc2ccccc2[nH]1)c1ccccc1 | > 100 µM (inactive) |  | > 100 µM (inactive) | 63.7 µM (inactive) | > 100 µM (inactive) | 86.9 µM (inactive) | > 100 µM (inactive) | > 100 µM (inactive) | > 100 µM (inactive) | > 100 µM (inactive) | 64.7 µM (inactive) | > 100 µM (inactive) | > 100 µM (inactive) | > 100 µM (inactive) |  | > 100 µM (inactive) | > 100 µM (inactive) | > 100 µM (inactive) |
| O=S1(=O)OCCOS(=O)(=O)C1Br | 52.2 µM (inactive) | > 100 µM (inactive) | 64.9 µM (inactive) |  | > 100 µM (inactive) | > 100 µM (inactive) | > 100 µM (inactive) | > 100 µM (inactive) |  | > 100 µM (inactive) | > 100 µM (inactive) | > 100 µM (inactive) |  | > 100 µM (inactive) | > 100 µM (inactive) | > 100 µM (inactive) | > 100 µM (inactive) |  |
| COc1ccc(OC)c(/C=C(/C#N)c2ccccc2)c1 | 5.32 µM (inactive) | 10.8 µM (inactive) | 52 µM (inactive) | 31.8 µM (inactive) | 10 µM (inactive) | 13.2 µM (inactive) | 19 µM (inactive) | 28.4 µM (inactive) | 30.6 µM (inactive) | 31.7 µM (inactive) | 14 µM (inactive) | 6.46 µM (inactive) | 56 µM (inactive) | 33.3 µM (inactive) | 28.2 µM (inactive) | > 10 µM (inactive) |  | 10.2 µM (inactive) |
| N#CCCN(CCC#N)C(=O)c1cccc(C(=O)N(CCC#N)CCC#N)c1 | > 37.3 µM (inactive) | > 44.6 µM (inactive) | > 61 µM (inactive) | > 45.8 µM (inactive) | > 93.3 µM (inactive) | > 56.5 µM (inactive) | > 100 µM (inactive) |  | > 46.2 µM (inactive) | > 100 µM (inactive) | > 100 µM (inactive) | 13.4 µM (inactive) | > 100 µM (inactive) | > 69 µM (inactive) | > 100 µM (inactive) | > 85.1 µM (inactive) | > 100 µM (inactive) | 4.07 µM (inactive) |
| O=C1NC(=O)C2C(=O)NC(=O)C1C2Cc1ccco1 (stereo not given) | > 100 µM (inactive) | > 100 µM (inactive) | > 100 µM (inactive) |  | > 100 µM (inactive) | > 100 µM (inactive) | > 100 µM (inactive) | > 100 µM (inactive) | > 100 µM (inactive) | > 100 µM (inactive) | > 100 µM (inactive) | > 100 µM (inactive) | > 100 µM (inactive) | > 100 µM (inactive) | > 100 µM (inactive) | > 100 µM (inactive) | > 100 µM (inactive) | > 100 µM (inactive) |
| O=C1CC2CCCCC2=C1O (stereo not given) | > 100 µM (inactive) | > 100 µM (inactive) | > 100 µM (inactive) | > 100 µM (inactive) | > 100 µM (inactive) | > 100 µM (inactive) | > 100 µM (inactive) | > 100 µM (inactive) | > 100 µM (inactive) | > 100 µM (inactive) | > 100 µM (inactive) | > 100 µM (inactive) | > 100 µM (inactive) |  | > 100 µM (inactive) | > 100 µM (inactive) | > 100 µM (inactive) | > 100 µM (inactive) |
| C#CC[C@]12CC(=O)CC[C@H]1CC1(C2)OCCO1 | > 100 µM (inactive) | > 100 µM (inactive) | > 100 µM (inactive) | > 100 µM (inactive) | > 100 µM (inactive) | > 100 µM (inactive) | > 100 µM (inactive) | > 100 µM (inactive) |  | > 100 µM (inactive) | > 100 µM (inactive) | > 100 µM (inactive) |  | > 100 µM (inactive) | > 100 µM (inactive) | > 100 µM (inactive) | > 100 µM (inactive) | > 100 µM (inactive) |
| CN1C(=O)CCC1(O)C1C=CC=CC1 (stereo not given) | > 100 µM (inactive) | > 100 µM (inactive) | > 100 µM (inactive) | > 100 µM (inactive) | > 100 µM (inactive) | > 100 µM (inactive) | > 100 µM (inactive) | > 100 µM (inactive) |  | > 100 µM (inactive) | > 100 µM (inactive) | > 100 µM (inactive) | > 100 µM (inactive) | > 100 µM (inactive) | > 100 µM (inactive) | > 100 µM (inactive) | > 100 µM (inactive) | > 100 µM (inactive) |
| c1ccc2c(c1)[nH]c1c2nc2ncccn21 | > 100 µM (inactive) | > 100 µM (inactive) | > 100 µM (inactive) | > 100 µM (inactive) | > 100 µM (inactive) | > 100 µM (inactive) | > 100 µM (inactive) | > 100 µM (inactive) | > 100 µM (inactive) | > 100 µM (inactive) | > 100 µM (inactive) | > 100 µM (inactive) | > 100 µM (inactive) | > 100 µM (inactive) |  | > 100 µM (inactive) | > 100 µM (inactive) | > 100 µM (inactive) |
| COc1cc2c(cc1OC)C(N(C)C)C(c1ccccc1)=C2Cl (stereo not given) |  | 20 µM (inactive) | 37.9 µM (inactive) | 16.6 µM (inactive) | 23.2 µM (inactive) |  | 25.3 µM (inactive) | 37.5 µM (inactive) |  | 21.8 µM (inactive) | 10.1 µM (inactive) | 16.2 µM (inactive) | 34 µM (inactive) | 19.8 µM (inactive) | 21.3 µM (inactive) |  | 18 µM (inactive) | 15.5 µM (inactive) |
| CC(C)C1CC(O)O[C@@H]([C@@H](C)[C@H]2CC(=O)[C@@H]3[C@@H]4[C@@H](O)[C@H](O)[C@H]5[C@@H](O)[C@H](O)CC[C@]5(C)[C@H]4CC[C@]23C)C1 (stereo not given in full) | 79.4 µM (inactive) | 22.2 µM (inactive) | 37.8 µM (inactive) | 63 µM (inactive) | 28.6 µM (inactive) | 52.2 µM (inactive) | 48 µM (inactive) | 38.3 µM (inactive) | 66.1 µM (inactive) | 24.5 µM (inactive) | 70.1 µM (inactive) | > 100 µM (inactive) |  | 91.6 µM (inactive) | > 100 µM (inactive) | > 100 µM (inactive) | 5.06 µM (inactive) | 13.3 µM (inactive) |
| COc1cc(CNc2ccc(C(C)C)cc2)cc(OC)c1OC | 16 µM (inactive) | 23.7 µM (inactive) | 29.6 µM (inactive) | 15.4 µM (inactive) | 18.5 µM (inactive) | 14.7 µM (inactive) | 15.4 µM (inactive) | 47.4 µM (inactive) | 51.8 µM (inactive) | 31 µM (inactive) |  |  | 24.8 µM (inactive) |  |  |  | 25.8 µM (inactive) | 0.693 µM (active) |
